Source: patent US20230372498A1, “PLK1 SELECTIVE DEGRADATION INDUCING COMPOUND” (UPPTHERA, priority 2020, published 2023)

Target: T1, PLK1 (Homo sapiens, UniProt P53350)
T1 construct: endogenous in cells; host or cells: HeLa
Assay: PLK1 protein degradation in HeLa cells, Western blotting (PLK1/GAPDH ratio)
Format: cell-based
Conditions: 6 hours compound incubation; for DC50: measured only if the grade of Dmax is A or B; for Dmax: thymidine block and release, 10 points three-fold from 3 μM, PLK1 to GAPDH ratio, read-out: Dmax
Text: The HeLa cell line was purchased from Korea Cell Line Bank (KCLB), Seoul, Korea. The passage in cell culture was maintained at P115 to P125.
For cell culture, DMEM (Gibco, Cat. No. 1195-65; Lot. No. 2085318), FBS (Gibco, Cat. No. 16000-044; Lot. No. 2097593), Penicillin/Streptomycin (PS) (Gibco, Cat. No. 15140-122; Lot. No. 2058855), 100 mm^2 cell culture dish (SPL, Cat. No. 20100), 150 mm^2 cell culture dish (SPL, Cat. No. 20150), 12-well culture plate (SPL, Cat. No. 30012), PBS pH 7.4 (Gibco, Cat. No. 10010-023; Lot. No. 2085080), TrypLE™ Express (Gibco, Cat. No. 12605-010; Lot No. 2070638), Counting Chamber (Hematocytometer) (Hirschmann, Cat. No. 8100204), and 0.4% Trypan Blue Solution (DYNEBIO, Cat. No. CBT3710; Lot. No. 20190723) were used.
2×10^5 cells were seeded for each well of a 12-well plate (SPL), and the cells were cultured in the culture medium in a total volume of 2 ml.
The compounds of Examples were completely dissolved in DMSO and used in the experiment, and thymidine was completely dissolved in DW and used in the experiment. For thymidine block, the products were treated with 2 mM of thymidine (Sigma-Aldrich Cat. No. T9250-5G) and then incubated for 24 hours.
For release and chemical treatment, the medium was suctioned and washed 3 times with 1×PBS. Complete media was added, followed by incubation for 4 hours in a CO2 incubator. Each compound was diluted three folds from the highest concentration of 3 μM to the lowest concentration in 10 points and then incubated for 6 hours again.
For SDS-PAGE and Western blotting, 1×RIPA lysis buffer (Rockland, Cat. No. MB-030-0050; Lot no. 39751), 100× Protease Inhibitor Cocktail (Quartett, Cat. No. PPI1015; Lot no. PCO50038424), Pierce™ BCA protein assay kit (ThermoScientific, Cat. No. 23225; Lot no. UC276876), albumin standard (ThermoScientific, Cat. No. 23209; Lot no. UB269561), 4-15% Mini-PROTEAN TGX stain-free gel (Bio-rad, Cat. No. 4568085; Lot no. L007041B), 10× Tris/Glycine/SDS buffer (Bio-rad, Cat. No. 1610732; Lot no. 10000044375B); 10×TBS (Bio-rad, Cat. No. 1706435; Lot no. 1000045140B), 10% Tween 20 (Cat. No. 1610781; Lot no. L004152B), Color protein standard broad range (NEB, Cat. No. P7719S; Lot no. 10040349), 4× Laemmli sample buffer (Bio-rad, Cat. No. 1610747; Lot no. L004133B), β-mercaptoethanol (Sigma-Aldrich, Cat. No. M3148; Lot no. 60-24-2), SuperBlock™ T20 (TBS) blocking buffer (ThermoScientific, Cat. No. 37536; Lot no. UC282578), 1M sodium azide solution (Sigma-Aldrich, Cat. No. 08591-1 mL-F; Lot no. BCBV4989), α-Rabbit pAb to Ms IgG (abcam, Cat. No. ab97046; Lot no. GR3252115-1), α-Goat pAb to Rb IgG (CST, Cat. No. 7074S; Lot no. 28), α-GAPDH (abcam, Cat. No. ab8245; Lot no. GR3275542-2), α-Plk1 (CST, Cat. No. 208G4), α-BRD4 (CST, Cat. No. 13440S), ECL™ Prime western blotting reagents (GE Healthcare, Cat. No. RPN2232; Lot no. 17001655), Ponceau S solution (Sigma-Aldrich, Cat. No. P7170; Lot no. SLBV4112), Difco™ Skim milk (BD, Cat. No. 232100; Lot no. 8346795), and iBlot® 2 NC Regular stacks (Invitrogen, Cat. No. IB323001; Lot no. 2NR110619-02) were used.
For cell harvesting, the cells were first separated from the plate using trypsin and then washed with the medium and PBS. Specifically, the medium was suctioned off and washed with 1 mL of PBS, and PBS was suctioned off. The cells were treated with 0.5 mL TrypLE™ Express at 37° C. for 7 minutes to separate the cells, and then 0.5 mL of complete medium was added to collect 1 mL of cell culture solution. Then, 1 mL of the cell collection solution was centrifuged at 8,000 rpm for 120 seconds, and the supernatant was removed. After washing with 0.2 mL of PBS, the PBS was removed.
For cell lysis, a lysis buffer was added and cell debris was removed to obtain a cell lysate. Specifically, the cells were treated with 70 μL of 1×RIPA buffer containing a protease inhibitor and incubated for 30 minutes on ice. Then, the cells were centrifuged at 4° C. and 15,000 rpm for 10 minutes to obtain a cell lysate. […]

T1 sequence (P53350 whole entry): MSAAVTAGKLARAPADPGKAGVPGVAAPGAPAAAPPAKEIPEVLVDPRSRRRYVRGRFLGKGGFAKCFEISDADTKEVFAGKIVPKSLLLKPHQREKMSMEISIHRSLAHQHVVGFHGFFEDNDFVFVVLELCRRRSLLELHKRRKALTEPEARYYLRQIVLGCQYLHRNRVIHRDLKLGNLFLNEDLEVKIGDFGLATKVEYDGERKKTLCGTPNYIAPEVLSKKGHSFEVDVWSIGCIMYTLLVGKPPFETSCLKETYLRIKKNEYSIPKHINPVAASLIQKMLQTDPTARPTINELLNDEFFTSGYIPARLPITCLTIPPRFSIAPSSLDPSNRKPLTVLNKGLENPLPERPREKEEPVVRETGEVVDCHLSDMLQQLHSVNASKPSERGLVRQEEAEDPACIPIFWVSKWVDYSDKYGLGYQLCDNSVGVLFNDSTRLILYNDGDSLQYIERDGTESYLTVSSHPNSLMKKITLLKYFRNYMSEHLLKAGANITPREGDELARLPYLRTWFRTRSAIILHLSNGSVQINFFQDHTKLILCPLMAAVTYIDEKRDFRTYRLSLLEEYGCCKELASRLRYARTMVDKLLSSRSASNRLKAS

Compound | DC50 [µM] | Dmax [%]
COc1cc(C(=O)NC2CCN(CCCOCCCNc3cccc4c3C(=O)N(C3CCC(=O)NC3=O)C4=O)CC2)c(F)cc1Nc1ncc2c(n1)N(C1CCCC1)CC(F)(F)C(=O)N2C (stereo not drawn) [Compound 18, 4-((9-cyclopentyl-7,7-difluoro-5-methyl-6-oxo-6,7,8,9-tetrahydro-5H-pyrimido[4,5-b][1,4]diazepin-2-yl)amino)-N-(1-(3-(3-((2-(2,6-dioxopiperidin-3-yl)-1,3-dioxoisoindolin-4-yl)amino)propoxy)propyl)piperidin-4-yl)-2-fluoro-5-methoxybenzamide] | ≤ 0.5 | 60 to 80
COc1cc(C(=O)NC2CCN(CCCCOCCCNc3cccc4c3C(=O)N(C3CCC(=O)NC3=O)C4=O)CC2)c(F)cc1Nc1ncc2c(n1)N(C1CCCC1)CC(F)(F)C(=O)N2C (stereo not drawn) [Compound 19, 4-((9-cyclopentyl-7,7-difluoro-5-methyl-6-oxo-6,7,8,9-tetrahydro-5H-pyrimido[4,5-b][1,4]diazepin-2-yl)amino)-N-(1-(4-(3-((2-(2,6-dioxopiperidin-3-yl)-1,3-dioxoisoindolin-4-yl)amino)propoxy)butyl)piperidin-4-yl)-2-fluoro-5-methoxybenzamide] | ≤ 0.5 | 60 to 80
COc1cc(C(=O)NC2CCN(CCCOCCCCNc3cccc4c3C(=O)N(C3CCC(=O)NC3=O)C4=O)CC2)c(F)cc1Nc1ncc2c(n1)N(C1CCCC1)CC(F)(F)C(=O)N2C (stereo not drawn) [Compound 20, 4-((9-cyclopentyl-7,7-difluoro-5-methyl-6-oxo-6,7,8,9-tetrahydro-5H-pyrimido[4,5-b][1,4]diazepin-2-yl)amino)-N-(1-(3-(4-((2-(2,6-dioxopiperidin-3-yl)-1,3-dioxoisoindolin-4-yl)amino)butoxy)propyl)piperidin-4-yl)-2-fluoro-5-methoxybenzamide] |  | < 60
COc1cc(C(=O)NC2CCN(CCOCCCOCCNc3cccc4c3C(=O)N(C3CCC(=O)NC3=O)C4=O)CC2)c(F)cc1Nc1ncc2c(n1)N(C1CCCC1)CC(F)(F)C(=O)N2C (stereo not drawn) [Compound 21, 4-((9-cyclopentyl-7,7-difluoro-5-methyl-6-oxo-6,7,8,9-tetrahydro-5H-pyrimido[4,5-b][1,4]diazepin-2-yl)amino)-N-(1-(2-(3-(2-((2-(2,6-dioxopiperidin-3-yl)-1,3-dioxoisoindolin-4-yl)amino)ethoxy)propoxy)ethyl)piperidin-4-yl)-2-fluoro-5-methoxybenzamide] | ≤ 0.05 | ≥ 80
COc1cc(C(=O)NC2CCN(CCOCCCCCCCCOCCNc3cccc4c3C(=O)N(C3CCC(=O)NC3=O)C4=O)CC2)c(F)cc1Nc1ncc2c(n1)N(C1CCCC1)CC(F)(F)C(=O)N2C (stereo not drawn) [Compound 22, 4-((9-cyclopentyl-7,7-difluoro-5-methyl-6-oxo-6,7,8,9-tetrahydro-5H-pyrimido[4,5-b][1,4]diazepin-2-yl)amino)-N-(1-(2-((8-(2-((2-(2,6-dioxopiperidin-3-yl)-1,3-dioxoisoindolin-4-yl)amino)ethoxy)octyl)oxy)ethyl)piperidin-4-yl)-2-fluoro-5-methoxybenzamide] | ≤ 0.5 | 60 to 80
COc1cc(C(=O)NC2CCN(CCCCOCCCOCCOCCNc3cccc4c3C(=O)N(C3CCC(=O)NC3=O)C4=O)CC2)c(F)cc1Nc1ncc2c(n1)N(C1CCCC1)CC(F)(F)C(=O)N2C (stereo not drawn) [Compound 23, 4-((9-cyclopentyl-7,7-difluoro-5-methyl-6-oxo-6,7,8,9-tetrahydro-5H-pyrimido[4,5-b][1,4]diazepin-2-yl)amino)-N-(1-(4-(3-(2-(2-((2-(2,6-dioxopiperidin-3-yl)-1,3-dioxoisoindolin-4-yl)amino)ethoxy)ethoxy)propoxy)butyl)piperidin-4-yl)-2-fluoro-5-methoxybenzamide] | ≤ 0.05 | ≥ 80
COc1cc(C(=O)NC2CCN(CCCOCCCOCCCOCCNc3cccc4c3C(=O)N(C3CCC(=O)NC3=O)C4=O)CC2)c(F)cc1Nc1ncc2c(n1)N(C1CCCC1)CC(F)(F)C(=O)N2C (stereo not drawn) [Compound 24, 4-((9-cyclopentyl-7,7-difluoro-5-methyl-6-oxo-6,7,8,9-tetrahydro-5H-pyrimido[4,5-b][1,4]diazepin-2-yl)amino)-N-(1-(3-(3-(3-(2-((2-(2,6-dioxopiperidin-3-yl)-1,3-dioxoisoindolin-4-yl)amino)ethoxy)propoxy)propoxy)propyl)piperidin-4-yl)-2-fluoro-5-methoxybenzamide] | ≤ 0.05 | ≥ 80
COc1cc(C(=O)NC2CCN(CCOCCCOCCOCCOCCNc3cccc4c3C(=O)N(C3CCC(=O)NC3=O)C4=O)CC2)c(F)cc1Nc1ncc2c(n1)N(C1CCCC1)CC(F)(F)C(=O)N2C (stereo not drawn) [Compound 25, 4-((9-cyclopentyl-7,7-difluoro-5-methyl-6-oxo-6,7,8,9-tetrahydro-5H-pyrimido[4,5-b][1,4]diazepin-2-yl)amino)-N-(1-(1-((2-(2,6-dioxopiperidin-3-yl)-1,3-dioxoisoindolin-4-yl)amino)-3,6,9,13-tetraoxapentadecan-15-yl)piperidin-4-yl)-2-fluoro-5-methoxybenzamide] | ≤ 0.05 | ≥ 80
COc1cc(C(=O)NC2CCN(CCOCCOCC(=O)Nc3cccc4c3C(=O)N(C3CCC(=O)NC3=O)C4=O)CC2)c(F)cc1Nc1ncc2c(n1)N(C1CCCC1)CC(F)(F)C(=O)N2C (stereo not drawn) [Compound 26, 4-((9-cyclopentyl-7,7-difluoro-5-methyl-6-oxo-6,7,8,9-tetrahydro-5H-pyrimido[4,5-b][1,4]diazepin-2-yl)amino)-N-(1-(2-(2-(2-((2-(2,6-dioxopiperidin-3-yl)-1,3-dioxoisoindolin-4-yl)amino)-2-oxoethoxy)ethoxy)ethyl)piperidin-4-yl)-2-fluoro-5-methoxybenzamide] |  | < 60
COc1cc(C(=O)NC2CCN(CCOCCOCCOCCOCC(=O)Nc3cccc4c3C(=O)N(C3CCC(=O)NC3=O)C4=O)CC2)c(F)cc1Nc1ncc2c(n1)N(C1CCCC1)CC(F)(F)C(=O)N2C (stereo not drawn) [Compound 27, 14-(4-(4-((9-cyclopentyl-7,7-difluoro-5-methyl-6-oxo-6,7,8,9-tetrahydro-5H-pyrimido[4,5-b][1,4]diazepin-2-yl)amino)-2-fluoro-5-methoxybenzamido)piperidin-1-yl)-N-(2-(2,6-dioxopiperidin-3-yl)-1,3-dioxoisoindolin-4-yl)-3,6,9,12-tetraoxatetradecanamide] | ≤ 0.5 | 60 to 80
